Data as given in a melting point compilation (Tetko et al.).

SMILES | melting point [°C]
Nc1ccc(I)cc1Cl | 73 to 75
CC(C)(C)C(=O)OCOc1ccccc1C(N)=O | 95
O=C(N[C@@H](Cc1ccccc1Br)C(=O)O)OCC1c2ccccc2-c2ccccc21 | 168
CC/C(CCCc1ccccc1)=N\NC(N)=O | 149
O=C(O)c1cc2cc(Cl)cc(Br)c2oc1=O | 206 to 208
Nc1n[nH]c(N)c1Cc1ccccc1Cl | 120 to 121
CC(C)OC(=O)C(O)(c1ccc(Cl)cc1)c1ccc(Cl)cc1 | 73
CCC(C)C1(CC)C(=O)NC(=S)NC1=O (stereo not given) | 169
O=C(O)c1cc2cc([N+](=O)[O-])ccc2s1 | 238 to 241
CCC(C(N)=O)n1nnc2ccccc21 (stereo not given) | 143
CC(C)CC=CC(C(=O)O)C1=CCC2(C)C(CCC3C4CCC(O)C4(C)CCC32)C1 (stereo not given) | 200
O=[N+]([O-])c1ccccc1N1CCCCC1 | 77 to 79
O=c1ccnc2n(-c3ccccc3)[nH]cc1-2 | 167
OCc1ccc(-c2cccs2)cc1 | 112
Cc1ccc(C(c2ccc(C)o2)c2cc(I)ccc2O)o1 | 104
Cc1c(Cl)ccc(OC(C)C(=O)Nc2ccccc2)c1Cl (stereo not given) | 146
CC(=O)Oc1ccc(OC(C)=O)c(-c2ccccc2)c1 | 68
CCC1CC(=O)CC(C)(C)N1O (stereo not given) | 33 to 38
Cc1cc(C(F)(F)F)n2nc(N)c(/N=N/c3ccc(Cl)cc3)c2n1 | 250
CC(C(=O)O)c1ccc(C(=O)c2cccs2)cc1 (stereo not given) | 124
Nc1ccc(C(=O)NC(CCC(=O)O)C(=O)O)cc1 (stereo not given) | 173
N#Cc1ccc2cccc(O)c2n1 | 131 to 136
O=C1c2ccccc2-c2ccc(O)cc21 | 205
CC(C)(c1cc(Br)c(OCCO)c(Br)c1)c1cc(Br)c(OCCO)c(Br)c1 | 108 to 114
COC1CCC(C2C(=O)NC(=O)NC2=O)CC1 (stereo not given) | 215
O=CC(Br)(Br)Br | -57.5

SMILES | melting point [°C]
C1=Cc2ccccc2CC1 | -8
O=C(Oc1ccccc1)c1cccnc1 | 72
Cc1ccc(-c2csc(/C(C#N)=N/Nc3ccc(F)cc3)n2)cc1 | 196
Cc1noc(-c2ccccc2)c1I | 66 to 68
COc1ccc(C=CC(=O)c2ccc(F)cc2)cc1OC | 88 to 93
c1cc2c(cc1CN1CCNCC1)OCO2 | 43
O=C(NN=CC=Cc1ccc([N+](=O)[O-])o1)c1ccc([N+](=O)[O-])s1 | 236
C1CSCSC1 | 54
Fc1cc(Br)cc(Br)c1N=C=S | 50 to 51
O=[N+]([O-])c1ccc(S(=O)(=O)F)cc1 | 76 to 80
CCOC(=O)c1sc(SC)nc1NC(=O)Nc1ccc(Cl)c(Cl)c1 | 158 to 162
Cn1c(S)nnc1Cc1ccsc1 | 130 to 133
CC(=O)C(=NNc1ccc(C(=O)O)cc1)C(C)=O | 215
Cc1n[nH]c2c(=O)n(C(C)C)c(C)nc12 | 143 to 145
O=C(C(Cl)Cl)C(Cl)(Cl)Cl | 2.1
CCOC(=O)C(CCC(=O)O)(CCC(=O)O)C(C)=O | 105 to 108
S=c1sc2nc3ccccc3nc2s1 | 180
Cc1ccc(/C=C2\CN(S(=O)(=O)c3ccc(C)cc3)c3ccccc3N2S(=O)(=O)c2ccc(C)cc2)cc1 | 155
CC(C)NCC(O)c1ccc([N+](=O)[O-])cc1 (stereo not given) | 98
O=C1C=CC(=O)N1c1ccc(Nc2ccccc2)c2ccccc12 | 207
O=C(Cl)c1ccc(I)cc1 | 63
Cc1cc(NC(=O)C=CC(=O)O)no1 | 165 to 172
Brc1ccc2cc[nH]c2c1 | 92
Cc1nc(C)c(C(=O)O)s1 | 233 to 235
O=C(O)c1cc(Cl)ccc1N=NC1SC(=S)NC1=O (stereo not given) | 210 to 212
CS(=O)(=O)c1ccc2nc(N)sc2c1 | 222 to 223

SMILES | melting point [°C]
Cc1cc(=O)[nH]c(=S)[nH]1 | 317 to 318
CC12CCC(O)CC1CCC1C2CCC2(C)C(C3=CC(=O)OC3)CCC12O (stereo not given) | 253
Cc1nc2ccccc2c2c1C(=O)NC2=O | 255 to 256
O=c1c(I)cn(CC(O)CO)cc1I (stereo not given) | 161
COC(=O)c1ccc(N)c(Cl)c1 | 113
CC1(C)OCC2OC3(C(=O)O)OC(C)(C)OC3C2O1 (stereo not given) | 92
O=S(=O)(Cl)c1ccc2c(c1)OCCO2 | 66 to 68
Cc1cccc(C(O)c2ccccc2)c1 (stereo not given) | 53
Cc1ccccc1C(N)=S | 142 to 143
C1=CC2c3ccccc3C1C21CC1 | 43
CCOc1ncnc2c1cnn2-c1ccccc1 | 94 to 96
C=C1CC(=O)OC1=O | 69
Nc1ccc(I)cc1 | 67.5
O=[N+]([O-])c1cc(O)ccc1Cl | 127
O=C(C=CN(O)c1ccccc1)c1ccc2c(c1)CCCC2 | 148
CC(Cc1ccccc1)c1ccccc1 (stereo not given) | 52
OCCCCCCCCl | 11
COC(=O)C1=Cc2ccccc2C1C (stereo not given) | 32
CCCC1Nn2c(nnc2-c2ccc(OCC)cc2)S1 (stereo not given) | 90
O=C(O)[C@H]1NCC[C@@H]1c1ccccc1 | 234 to 236
O=C(Cl)c1cnn2ccccc12 | 116 to 118
CC(C)(C)N(NC(=O)c1ccccc1)C(=O)c1cc(F)c(F)c(F)c1F | 158
Cc1cc(Cl)ccc1NC(=S)N(C)C | 175
CC(C)[C@@H]1C(=O)N(c2ccccc2)[C@@H]1c1ccccc1 | 169
COC(=O)c1cc(Oc2ccc(Cl)cc2Cl)ccc1[N+](=O)[O-] | 87
O=[N+]([O-])c1ccc(CCBr)cc1 | 69

SMILES | melting point [°C]
Cc1ccc(C(=CCN2CCCC2)c2ccccn2)cc1 | 60
CC(O)(C(=O)O)c1ccccc1 (stereo not given) | 116
CCC1(O)CCC2C3CCC4=CC(=O)CCC4C3CCC21C (stereo not given) | 140
N#CCCN(CCC#N)c1ccccc1 | 80 to 88
CCOC(=O)c1c(N)sc2c1CCN(C(=O)OC(C)(C)C)C2 | 153
Ic1ccc2[nH]ccc2c1 | 99
CCOC(=O)c1cn(-c2ccc(F)cc2F)c2nc(Cl)c(F)cc2c1=O | 212 to 215
CC(C)(C)OC(=O)N[C@H](COCc1ccccc1)C(=O)O | 61.5
COC(=O)CC[C@@H](C)[C@H]1CC[C@H]2[C@@H]3C(=O)C[C@@H]4CCCC[C@]4(C)[C@H]3CC[C@]12C | 92.9
CC(=O)C(C(C)=O)C(c1ccc(C)o1)c1ccc(C)o1 | 60
O=c1cc[nH]c(=O)o1 | 156
CS(=O)(=O)Cc1ccccc1 | 126
O=C(Oc1ccc2ccccc2c1)c1ccccc1O | 95.5
O=C(Cl)c1cccc2nsnc12 | 110 to 114
COc1cc(CC#N)c(OC)cc1CC#N | 198 to 200
CN(C)CCN | -70
CC(C)(c1ccc(OC(=O)Cl)cc1)c1ccc(OC(=O)Cl)cc1 | 90 to 95
Cc1cccc2c(O)c(C=C3C(=O)N(c4ccccc4)N=C3c3ccccc3)c(=O)[nH]c12 | 113
CC(=O)c1cc2c(cc1Br)OCCCO2 | 56 to 58
COC(=O)c1cc([N+](=O)[O-])ccc1OC | 101
O=[N+]([O-])c1ncc[nH]1 | 287
O=C1C=CC(=O)c2c(O)ccc(O)c21 | 237
Cc1nc(-c2ccc(C(F)(F)F)cc2)sc1C(=O)Cl | 85 to 86
CCOC(=O)Nc1cccc(OC(=O)Nc2ccccc2)c1 | 120
N#CCC(=O)c1ccc(Cl)c(Cl)c1 | 116
O=C1CCc2ccc(OCCCCN3CCN(c4cccc(Cl)c4Cl)CC3)cc2N1 | 139

SMILES | melting point [°C]
O=[N+]([O-])C=Cc1c(Cl)cccc1Cl | 62 to 66
N#Cc1c(F)cccc1Cl | 58
O=C1CC2C(Cl)CC1C2C(=O)O (stereo not given) | 157 to 160
CCCOC(=O)C1=C(C)NC(=O)NC1c1ccccc1 (stereo not given) | 176
O=C(O)c1ccc(O)cc1C(=O)O | 191 to 194
O=C(O)c1ccc(F)cc1[N+](=O)[O-] | 149
O=C(O)c1cnc2ccccc2n1 | 206
O=C1Cc2c1cccc2[N+](=O)[O-] | 115 to 117
CCCCCCNC(=O)c1ccc(O)c(O)c1 | 140
O=C(O)c1cc(F)cc2c1OCOC2 | 180 to 182
O=c1/c(=C/c2ccc3c(c2)OCO3)sc2n1CCCN=2 | 151
CC(=O)c1cc2c(cc1C)C(C)(C)C(C)CC2(C)C (stereo not given) | 54.5
CC(=O)C=CC1C(C)=CCC(C)C1(C)C (stereo not given) | < 25
Sc1nnc2ccccn12 | 213 to 214
O=S(=O)(Cl)c1ccc2c(c1)OCCCO2 | 50 to 52
N#CCc1cc(C(F)(F)F)ccc1Cl | 32
COC(=O)c1cnc(SC)n1C | 53 to 55
Cc1cc(O)ncc1[N+](=O)[O-] | 189
NC(=O)C1c2ccccc2CCc2ccccc21 | 194
O=S(=O)(Cl)c1cccc(Cl)c1Cl | 61 to 63
CC(=O)OC1CCC2(C)C(C1)CC1(OCCO1)C1C3CCC(=O)C3(C)CCC12 (stereo not given) | 240
CCC(c1ccccc1)c1c(O)oc2ccccc2c1=O (stereo not given) | 180
O=C(Nc1cccnc1Cl)c1ccccc1 | 91 to 92
O=S(=O)(Cl)c1cnc(Cl)c(Br)c1 | 68
CC(C)(C(=O)O)C1=CCC2(C)C(CCC3C4CCC(O)C4(C)CCC32)C1 (stereo not given) | 264
FC(F)(F)c1cc(C(F)(F)F)[nH]n1 | 82 to 84
